Assay results from patent US20110262456A1, “METHOD OF TREATING ISCHEMIA REPERFUSION INJURY” (priority 2008, published 2011).
Read-outs that look alike come from different tables or passages of the source.

Columns and labels:
[1] = system: HL-60 human promyelocytic leukemia cells; settings: cited from earlier work
rabbit heart = settings: application after the onset of cardiac ischemia, rabbit infarct model; cited from earlier work
rabbit hearts = test: Rabbit heart regional ischemia/reperfusion, infarct size as percentage of risk zone; type: in vivo, New Zealand White rabbits; settings: ischemia alone, FIG. 9
Protocol: New Zealand White rabbits of either sex weighing nearly 3 Kg were anesthetized with intravenous sodium pentobarbital (30 mg/kg). Throughout the experiment, additional anesthesia was administered as needed (5-15 mg pentobarbital/15 min) A heating pad maintained rectal temperature between 38.5 and 39.5-C. Animals were intubated through a tracheotomy and ventilated with 100% O2 with the aid of a mechanical ventilator. To administer drugs, a PE 50 catheter filled with heparinized saline was placed in an ear vein. After a left thoractomy, a prominent branch of the left coronary artery was surrounded with a suture (2-0 silk) to form a snare. The rabbits were allowed to stabilize for 15 min after surgery before the protocols were begun. […] The coronary artery was re-occluded, and […] diameter green fluorescent microspheres (Duke Scientific Corp., Palo Alto, Calif.) were infused into the perfusate to demarcate the ischemic zone as the area of tissue without fluorescence (region at risk). […] The areas of infarct and risk zone were determined by planimetry of each slice and volumes were calculated by multiplying each area by its slice thickness and summing them for each heart. Infarct size is expressed as a percentage of the risk zone. […] All data are expressed as mean TS.E.M. One-way analysis of variance (ANOVA) combined with Tukey's posthoc test was performed on baseline hemodynamic and infarct data. […]

For `CNC(=O)[C@H]1O[C@@H](n2cnc3c(NCc4cccc(I)c4)ncnc32)[C@H](O)[C@@H]1O` [IB-MECA], the “apoptosis in HL-60 cells” value ([1]; 30 and 60 μM) is given as “induced apoptosis”.

For `CNC(=O)[C@H]1O[C@@H](n2cnc3c(NCc4cccc(I)c4)nc(Cl)nc32)[C@H](O)[C@@H]1O` [C1-IB-MECA], the “apoptosis in HL-60 cells, low concentrations” value ([1]; 10 nM or 1 μM) is given as “protected against” and the “apoptosis in HL-60 cells” value ([1]; 10-30 μM) is given as “induced apoptosis”.

For `N#Cc1c(N)nc(SCC(N)=O)c(C#N)c1-c1ccc(OCC2CC2)cc1` [BAY-60-6583], the “reduction of the infarct size” value (rabbit heart) is given as “effective”.

With `CCNC(=O)[C@H]1O[C@@H](n2cnc3c(N)ncnc32)[C@H](O)[C@@H]1O` [NECA, 5′-N-ethylcarboxamidoadenosine] the “protection (inhibition of infarct size)” value (rabbit hearts) was 50%.
